We go through six compounds from patent US11072607B2, “Inhibitors of RIP1 kinase and methods of use thereof” (priority 2016, dated 2021).

pKi: −log10 of the molar value.

For this assay, the target named is human RIP1 kinase domain (2-375) (Homo sapiens (Human), UniProt Q13546). Kind of assay: RIP1 kinase inhibition assay (biochemical, Transcreener ADP assay). The settings on record: tight-binding apparent inhibition constant (Ki app, Morrison equation); 50 nM enzyme, 50 uM ATP, 2 hours incubation, fluorescence polarization; read-out: RIP1 Ki. The protocol:
Example 45: RIP1 Kinase Inhibition Assays (Biochemical Assay)
The compounds of the present invention were tested for their capacity to inhibit RIP1K activity as described below.
The ability of the receptor interacting protein kinase (RIPK1) to catalyze the hydrolysis of adenosine-5′-triphosphate (ATP) is monitored using the Transcreener ADP (adenosine-5′-diphosphate) assay (BellBrook Labs). Purified human RIP1 kinase domain (2-375) (50 nM) derived from a baculovirus-infected insect cell expression system is incubated with test compounds for 2 hours in 50 mM Hepes buffer (pH 7.5) containing 30 mM MgCl2, 1 mM dithiothreitol, 50 uM ATP, 0.002% Brij-35, and 0.5% dimethyl sulfoxide (DMSO). Reactions are quenched by the addition of 1× Bell Brooks Stop buffer B (20 mM Hepes (ph 7.5), 40 mM ethylenediaminetetraacetic acid and 0.02% Brij-35) containing an additional 12 mM EDTA and 55 ug/mL ADP2 antibody and 4 nM ADP-AlexaFluor® 633 tracer. The tracer bound to the antibody is displaced by the ADP generated during the RIP1K reaction, which causes a decrease in fluorescence polarization that is measured by laser excitation at 633 nm with a FP microplate reader M1000. Fractional activity was plotted against test article concentration. Using Genedata Screener software (Genedata; Basel, Switzerland), the data were fit to the tight-binding apparent inhibition constant (Ki^app) Morrison equation [Williams, J. W. and Morrison, J. F. (1979) The kinetics of reversible tight-binding inhibition. Methods Enzymol 63: 437-67]. The following equation was used to calculate fractional activity and Ki^app: […]
where [E]T and [I]T are the total concentrations of active enzyme and test article, respectively. […]

Chain of human RIP1 kinase domain (2-375) (Q13546 2-375): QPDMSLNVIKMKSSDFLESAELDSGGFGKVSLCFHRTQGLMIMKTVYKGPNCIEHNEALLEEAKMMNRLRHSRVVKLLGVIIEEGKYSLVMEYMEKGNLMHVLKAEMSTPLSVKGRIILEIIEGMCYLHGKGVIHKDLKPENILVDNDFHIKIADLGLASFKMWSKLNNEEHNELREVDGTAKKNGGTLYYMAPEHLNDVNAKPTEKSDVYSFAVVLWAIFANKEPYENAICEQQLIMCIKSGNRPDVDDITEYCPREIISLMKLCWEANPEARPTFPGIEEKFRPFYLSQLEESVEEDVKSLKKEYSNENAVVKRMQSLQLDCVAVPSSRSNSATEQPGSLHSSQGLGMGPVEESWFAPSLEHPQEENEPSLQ

As a reminder, the pKi is the negative decadic logarithm of the Ki, by convention in mol/L. As to `CN1C(=O)[C@@H](NC(=O)c2ncn(Cc3ccccc3)n2)CCn2nc(CC3CCOC3)cc21` (stereo partly drawn) [Example #19, 1-benzyl-N-[(6S)-4-methyl-5-oxo-2-(tetrahydrofuran-3-ylmethyl)-7,8-dihydro-6H-pyrazolo[1,5-a][1,3]diazepin-6-yl]-1,2,4-triazole-3-carboxamide], the pKi was 7.80.

In the case of `O=C(N[C@H]1CCc2cc(F)cc(F)c2NC1=O)c1nc2n(n1)C(c1ccccc1)CC2(F)F` (stereo partly drawn) [Example #24, 7,7-difluoro-5-phenyl-N-[(3S)-7,9-difluoro-2-oxo-1,3,4,5-tetrahydro-1-benzazepin-3-yl]-5,6-dihydropyrrolo[1,2-b][1,2,4]triazole-2-carboxamide], the pKi was 7.66.

In the case of `CN1C(=O)[C@@H](NC(=O)c2nc3n(n2)C(c2ccccc2)CC3(F)F)COc2ccccc21` (stereo partly drawn) [Example #25, 7,7-difluoro-5-phenyl-N-[(3S)-5-methyl-4-oxo-2,3-dihydro-1,5-benzoxazepin-3-yl]-5,6-dihydropyrrolo[1,2-b][1,2,4]triazole-2-carboxamide], the pKi was 7.48.

As to `CN1C(=O)[C@@H](NC(=O)c2nc3n(n2)C(c2ccccc2)CC3F)CCn2nccc21` (stereo partly drawn) [Example #26, 7-fluoro-5-phenyl-N-[(6S)-4-methyl-5-oxo-7,8-dihydro-6H-pyrazolo[1,5-a][1,3]diazepin-6-yl]-6,7-dihydro-5H-pyrrolo[1,2-b][1,2,4]triazole-2-carboxamide], the negative logarithm of the Ki (pKi) is 7.31.

On to `O=C(N[C@H]1CCc2cc(F)cc(F)c2NC1=O)c1nc2n(n1)C(c1ccccc1)CC2F` (stereo partly drawn) [Example #27, 7-fluoro-5-phenyl-N-[(3S)-7,9-difluoro-2-oxo-1,3,4,5-tetrahydro-1-benzazepin-3-yl]-6,7-dihydro-5H-pyrrolo[1,2-b][1,2,4]triazole-2-carboxamide], for which the negative-log Ki (pKi) is 7.85.

Take `CN1C(=O)[C@@H](NC(=O)c2nc3n(n2)C(c2ccccc2)CC3F)COc2ccccc21` (stereo partly drawn) [Example #28, 7-fluoro-5-phenyl-N-[(3S)-5-methyl-4-oxo-2,3-dihydro-1,5-benzoxazepin-3-yl]-6,7-dihydro-5H-pyrrolo[1,2-b][1,2,4]triazole-2-carboxamide]: the negative logarithm of the Ki (pKi) was 7.92.
